Data: US6900219B2, “ABCA-1 elevating compounds” (CV Therapeutics, Inc., priority 2002, dated 2005)

System: ABCA-1 gene
Assay: compounds tested and found to elevate cellular expression of the ABCA-1 gene (Examples 1-6; test not named)
Assay type: cell-based
Protocol: Activity testing is conducted as described in those patents and patent applications referenced above, and in the Examples below, and by methods apparent to one skilled in the art.

Row | SMILES | cellular expression of the ABCA-1 gene
1 | O=C(NCC1CCCCC1)Nc1ccc(Cl)c(Cl)c1 [N-(3,4-dichlorophenyl)[(cyclohexylmethyl)amino]carboxamide] | elevate cellular expression of the ABCA-1 gene
2 | O=C(NCCc1ccccn1)c1ccc([N+](=O)[O-])cc1Cl [(2-chloro-4-nitrophenyl)-N-(2-(2-pyridyl)ethyl)carboxamide] | elevate cellular expression of the ABCA-1 gene
3 | O=C(Nc1cccc(Cl)c1)c1ccc2ccccc2c1 [N-(3-chlorophenyl)-2-naphthylcarboxamide] | elevate cellular expression of the ABCA-1 gene
4 | N#Cc1ccc(C(=O)Nc2nc3ccccc3s2)cc1 [N-benzothiazol-2-yl(4-cyanophenyl)carboxamide] | elevate cellular expression of the ABCA-1 gene
5 | O=C1CSC(NC(=O)c2ccc(Cl)cc2)=N1 [(4-chlorophenyl)-N-(4-oxo(1,3-thiazolin-2-yl))carboxamide] | elevate cellular expression of the ABCA-1 gene
6 | COc1cc(C(=O)NC2=NC(=O)CS2)cc(OC)c1OC [(3,4,5-trimethoxyphenyl)-N-(4-oxo(1,3-thiazolin-2-yl))carboxamide] | elevate cellular expression of the ABCA-1 gene
7 | O=C1CSC(NC(=O)c2ccc(Cl)c(Cl)c2)=N1 [(3,4-dichlorophenyl)-N-(4-oxo(1,3-thiazolin-2-yl))carboxamide] | elevate cellular expression of the ABCA-1 gene
8 | O=C(Nc1ncc(-c2ccccc2)s1)C1CCCCC1 [cyclohexyl-N-(5-phenyl(1,3-thiazol-2-yl))carboxamide] | elevate cellular expression of the ABCA-1 gene
9 | COc1ccc(C(=O)NC2=NCCS2)cc1 [(4-methoxyphenyl)-N-(1,3-thiazolin-2-yl)carboxamide] | elevate cellular expression of the ABCA-1 gene
10 | N#Cc1ccc(C(=O)Nc2ncc(-c3ccccc3)s2)cc1 [(4-cyanophenyl)-N-(5-phenyl(1,3-thiazol-2-yl))carboxamide] | elevate cellular expression of the ABCA-1 gene
11 | CC(C)CN(C(=O)Nc1ccc(Cl)cc1)C(C)c1nc2ccccc2c(=O)n1-c1ccc2ccccc2c1 (centres unmarked) [[(4-chlorophenyl)amino]-N-(2-methylpropyl)-N-[(3-(2-naphthyl)-4-oxo(3-hydroquinazolin-2-yl))ethyl]carboxamide] | elevate cellular expression of the ABCA-1 gene
12 | N#Cc1ccc(C(=O)Nc2nc3c(Cl)cccc3s2)cc1 [N-(4-chlorobenzothiazol-2-yl)(4-cyanophenyl)carboxamide] | elevate cellular expression of the ABCA-1 gene
13 | O=C(Nc1nc2ccccc2s1)c1cnn(-c2ccccc2)c1C(F)(F)F [N-benzothiazol-2-yl[1-phenyl-5-(trifluoromethyl)pyrazol-4-yl]carboxamide] | elevate cellular expression of the ABCA-1 gene
14 | CCCCNC(=O)N(Cc1ccco1)C(C)c1nc2cc(Cl)ccc2c(=O)n1-c1ccc(C)cc1 (centres unmarked) [(butylamino)-N-{[7-chloro-3-(4-methylphenyl)-4-oxo(3-hydroquinazolin-2-yl)]ethyl}-N-(2-furylmethyl)carboxamide] | elevate cellular expression of the ABCA-1 gene
15 | O=C(NC1=NCCS1)c1ccc2c(c1)OCO2 [2H-benzo[3,4-d]1,3-dioxolan-5-yl-N-(1,3-thiazolin-2-yl)carboxamide] | elevate cellular expression of the ABCA-1 gene
16 | O=C(Nc1cccc(Cl)c1)Nc1ccccc1Cl [N-(2-chlorophenyl)[(3-chlorophenyl)amino]carboxamide] | elevate cellular expression of the ABCA-1 gene
17 | Cc1c(C(=O)NCc2ccccc2)cnn1-c1nc(-c2ccc(Cl)cc2)cs1 [{1-[4-(4-chlorophenyl)(1,3-thiazol-2-yl)]-5-methylpyrazol-4-yl}-N-benzylcarboxamide] | elevate cellular expression of the ABCA-1 gene
18 | Cc1onc(-c2ccccc2Cl)c1C(=O)Nc1nc2ccccc2s1 [N-benzothiazol-2-yl[3-(2-chlorophenyl)-5-methylisoxazol-4-yl]carboxamide] | elevate cellular expression of the ABCA-1 gene
19 | COc1ccc(CN(CCc2ccc(OC)c(OC)c2)C(=O)C2CC2)cc1 [N-[2-(3,4-dimethoxyphenyl)ethyl]cyclopropyl-N-[(4-methoxyphenyl)methyl]-carboxamide] | elevate cellular expression of the ABCA-1 gene
20 | Cc1ccc(NC(=O)Nc2cccc(Cl)c2)cc1C [N-(3,4-dimethylphenyl)[(3-chlorophenyl)amino]carboxamide] | elevate cellular expression of the ABCA-1 gene
21 | CCOC(=O)C1=C(NCCc2ccccc2)CCN(C(=O)c2ccc(F)cc2)C1 [ethyl 1-[(4-fluorophenyl)carbonyl]-4-[(2-phenylethyl)amino]-1,2,5,6-tetrahydropyridine-3-carboxylate] | elevate cellular expression of the ABCA-1 gene

Row | SMILES | cellular expression of the ABCA-1 gene
22 | O=C(NCCc1ccccc1)c1ccc2ccccc2c1 [2-naphthyl-N-(2-phenylethyl)carboxamide] | elevate cellular expression of the ABCA-1 gene
23 | O=C(Nc1ccc2c(c1)OCOC2)c1sc2ccccc2c1Cl [N-(2H,4H-benzo[e]1,3-dioxan-7-yl)(3-chlorobenzo[b]thiophen-2-yl)carboxamide] | elevate cellular expression of the ABCA-1 gene
24 | CCc1ccc(C(=O)NCCN(C(=O)Nc2ccc(Oc3ccccc3)cc2)c2ccccc2)cc1 [(4-ethylphenyl)-N-(2-{phenyl[N-(4-phenoxyphenyl)carbamoyl]amino}ethyl) carboxamide] | elevate cellular expression of the ABCA-1 gene
25 | O=C(NC1=NCCS1)c1cccc(Cl)c1 [(3-chlorophenyl)-N-(1,3-thiazolin-2-yl)carboxamide] | elevate cellular expression of the ABCA-1 gene
26 | O=[N+]([O-])c1ccc(OCCOc2ccc([N+](=O)[O-])cc2)cc1 [1-nitro-4-[2-(4-nitrophenoxy)ethoxy]benzene] | elevate cellular expression of the ABCA-1 gene
27 | O=C(c1ccc(Br)cc1)N(CCc1ccccc1)Cc1ccc(C(F)(F)F)cc1 [(4-bromophenyl)-N-(2-phenylethyl)-N-{[4-(trifluoromethyl)phenyl]methyl}-carboxamide] | elevate cellular expression of the ABCA-1 gene
28 | CCOC(=O)C1=C(NCCc2ccccc2)CCN(C(=O)c2ccc([N+](=O)[O-])cc2)C1 [ethyl 1-[(4-nitrophenyl)carbonyl]-4-[(2-phenylethyl)amino]-1,2,5,6-tetrahydropyridine-3-carboxylate] | elevate cellular expression of the ABCA-1 gene
29 | O=C(Nc1ccc2ccccc2c1)c1sc2ccccc2c1Cl [(3-chlorobenzo[b]thiophen-2-yl)-N-(2-naphthyl)carboxamide] | elevate cellular expression of the ABCA-1 gene
30 | Nc1nc(-c2ccc(Cl)cc2)nc2sc3c(c12)CCCCC3 [2-(4-chlorophenyl)-5,6,7,8,9-pentahydrocyclohepta[1,2-b]pyrimidino[5,4-d]thiophene-4-ylamine] | elevate cellular expression of the ABCA-1 gene
31 | O=C(Nc1nc2c(Cl)cccc2s1)c1ccc2c(c1)OC(F)(F)O2 [(2,2-difluorobenzo[3,4-d]1,3-dioxolen-5-yl)-N-(4-chlorobenzothiazol-2-yl)carboxamide] | elevate cellular expression of the ABCA-1 gene
32 | Cc1ccc(NC(=O)N(CC(C)C)C(C)c2nc3ccccc3c(=O)n2-c2ccc3ccccc3c2)cc1 (centres unmarked) [[(4-methylphenyl)amino]-N-(2-methylpropyl)-N-[(3-(2-naphthyl)-4-oxo(3-hydroquinazolin-2-yl))ethyl]carboxamide] | elevate cellular expression of the ABCA-1 gene
33 | Cc1ccc(NC(=O)Nc2ccc(Cl)c(Cl)c2)cc1 [N-(3,4-dichlorophenyl)[(4-methylphenyl)amino]carboxamide] | elevate cellular expression of the ABCA-1 gene
34 | O=C(Nc1nc2ccccc2s1)c1cccs1 [N-benzothiazol-2-yl-2-thienylcarboxamide] | elevate cellular expression of the ABCA-1 gene
35 | CCN(CCCN(CC)c1nc2cc(C(=O)Nc3ccc(OC)cc3)ccc2o1)C(=O)c1ccoc1 [(2-{ethyl[3-(N-ethyl-3-furylcarbonylamino)propyl]amino}benzoxazol-5-yl)-N-(4-methoxyphenyl)carboxamide] | elevate cellular expression of the ABCA-1 gene
36 | O=C(NC1=NCCS1)c1ccc(F)cc1 [(4-fluorophenyl)-N-(1,3-thiazolin-2-yl)carboxamide] | elevate cellular expression of the ABCA-1 gene
37 | O=C(Nc1ccc(Cl)cc1)c1ccccc1Cl [(2-chlorophenyl)-N-(4-chlorophenyl)carboxamide] | elevate cellular expression of the ABCA-1 gene
38 | O=C(NCCc1ccccc1F)c1ccc2oc(N3CCCN(C(=O)CCc4c[nH]c5ccccc45)CC3)nc2c1 [N-[2-(2-fluorophenyl)ethyl]{2-[4-(3-indol-3-ylpropanoyl)(1,4-diazaperhydroepinyl)]benzoxazol-5-yl}carboxamide] | elevate cellular expression of the ABCA-1 gene
39 | CCOC(=O)CNC(=O)N(CCOC)C(C)c1nc2ccccc2c(=O)n1-c1ccc(Br)cc1 (centres unmarked) [ethyl 2-[(N-{[3-(4-bromophenyl)-4-oxo(3-hydroquinazolin-2-yl)]ethyl}-N-(2-methoxyethyl)carbamoyl)amino]acetate] | elevate cellular expression of the ABCA-1 gene
40 | Cc1cccc(NC(=O)c2cc3ccccc3oc2=O)c1 [N-(3-methylphenyl)(2-oxochromen-3-yl)carboxamide] | elevate cellular expression of the ABCA-1 gene
41 | O=C(c1ccc(Br)cc1)N(CCc1ccccc1)Cc1c2ccccc2cc2ccccc12 [N-(9-anthrylmethyl)(4-bromophenyl)-N-(2-phenylethyl)carboxamide] | elevate cellular expression of the ABCA-1 gene
